Patent publication US20170326125A1, “MULTISUBSTITUTED AROMATIC COMPOUNDS AS INHIBITORS OF THROMBIN” (VERSEON CORPORATION, priority 2016, published 2017)
pIC50: −log10 of the molar value.

Biological target: T1, Human thrombin (Homo sapiens, UniProt P00734)
T1 construct: purchased Haematologic Technologies Inc
Assay: Inhibition of the protease activity of thrombin (chromogenic substrate S-2238)
Assay type: biochemical
Details: inhibition of the protease activity of thrombin

Compound | pIC50
COc1ccc(C(=O)n2nc(-c3ccccc3F)cc2NCc2ccccc2)c(OC)c1 [Cmpd 234, N-benzyl-1-[(2,4-dimethoxyphenyl)carbonyl]-3-(2-fluorophenyl)-1H-pyrazol-5-amine] | < 6.00
COc1ccc(C(=O)n2nc(-c3ccccn3)nc2NCc2ccccc2)c(OC)c1 [Cmpd 235, N-benzyl-1-[(2,4-dimethoxyphenyl)carbonyl]-3-(pyridin-2-yl)-1H-1,2,4-triazol-5-amine] | > 7.00
O=C(c1c(Cl)cccc1Cl)n1nc(-c2ccccn2)nc1NCc1ccccc1 [Cmpd 238, N-benzyl-1-[(2,6-dichlorophenyl)carbonyl]-3-(pyridin-2-yl)-1H-1,2,4-triazol-5-amine] | < 6.00
O=C(c1c(F)cccc1F)n1nc(-c2ccccn2)nc1NCc1ccccc1 [Cmpd 239, N-benzyl-1-[(2,6-difluorophenyl)carbonyl]-3-(pyridin-2-yl)-1H-1,2,4-triazol-5-amine] | 6.00 to 7.00
O=C(c1ccccc1Cl)n1nc(-c2ccncc2)nc1NCc1ccccc1 [Cmpd 245, N-benzyl-1-[(2-chlorophenyl)carbonyl]-3-(pyridin-4-yl)-1H-1,2,4-triazol-5-amine] | > 7.00
COc1ccccc1C(=O)n1nc(-c2cccnn2)nc1NCc1ccccc1 [Cmpd 254, N-benzyl-1-[(2-methoxyphenyl)carbonyl]-3-(pyridazin-3-yl)-1H-1,2,4-triazol-5-amine] | > 7.00
COc1ccccc1C(=O)n1nc(-c2ccncc2)nc1NCc1ccccc1 [Cmpd 257, N-benzyl-1-[(2-methoxyphenyl)carbonyl]-3-(pyridin-4-yl)-1H-1,2,4-triazol-5-amine] | > 7.00
COc1ccccc1C(=O)n1nc(-c2cccs2)nc1NCc1ccccc1 [Cmpd 258, N-benzyl-1-[(2-methoxyphenyl)carbonyl]-3-(thiophen-2-yl)-1H-1,2,4-triazol-5-amine] | > 7.00
O=C(c1ccc(Cl)cc1)n1nc(-c2ccccn2)nc1NCc1ccccc1 [Cmpd 262, N-benzyl-1-[(4-chlorophenyl)carbonyl]-3-(pyridin-2-yl)-1H-1,2,4-triazol-5-amine] | > 7.00
O=C(c1ccc(Cl)cc1)n1nc(-c2ccncc2)nc1NCc1ccccc1 [Cmpd 263, N-benzyl-1-[(4-chlorophenyl)carbonyl]-3-(pyridin-4-yl)-1H-1,2,4-triazol-5-amine] | > 7.00
COc1ccc(C(=O)n2nc(-c3ccccn3)nc2NCc2ccccc2)cc1 [Cmpd 265, N-benzyl-1-[(4-methoxyphenyl)carbonyl]-3-(pyridin-2-yl)-1H-1,2,4-triazol-5-amine] | > 7.00
O=C(c1ccco1)n1nc(-c2ccncc2)nc1NCc1ccccc1 [Cmpd 266, N-benzyl-1-[(furan-2-yl)carbonyl]-3-(pyridin-4-yl)-1H-1,2,4-triazol-5-amine] | > 7.00
O=C(c1ccoc1)n1nc(-c2ccccn2)nc1NCc1ccccc1 [Cmpd 267, N-benzyl-1-[(furan-3-yl)carbonyl]-3-(pyridin-2-yl)-1H-1,2,4-triazol-5-amine] | > 7.00
O=C(c1ccoc1)n1nc(-c2ccncc2)nc1NCc1ccccc1 [Cmpd 268, N-benzyl-1-[(furan-3-yl)carbonyl]-3-(pyridin-4-yl)-1H-1,2,4-triazol-5-amine] | > 7.00

Second part, the molecule after the results:

pIC50 | Compound
6.00 to 7.00 | COc1ccc(C(=O)n2nc(-c3ccccn3)cc2NCc2ccccc2)c(OC)c1 [Cmpd 236, N-benzyl-1-[(2,4-dimethoxyphenyl)carbonyl]-3-(pyridin-2-yl)-1H-pyrazol-5-amine]
6.00 to 7.00 | Cc1ccc(C(=O)n2nc(-c3ccccn3)nc2NCc2ccccc2)c(C)c1 [Cmpd 237, N-benzyl-1-[(2,4-dimethylphenyl)carbonyl]-3-(pyridin-2-yl)-1H-1,2,4-triazol-5-amine]
> 7.00 | O=C(c1ccccc1Br)n1nc(-c2ccccn2)nc1NCc1ccccc1 [Cmpd 240, N-benzyl-1-[(2-bromophenyl)carbonyl]-3-(pyridin-2-yl)-1H-1,2,4-triazol-5-amine]
6.00 to 7.00 | O=C(c1ccccc1Br)n1nc(-c2ccccn2)cc1NCc1ccccc1 [Cmpd 241, N-benzyl-1-[(2-bromophenyl)carbonyl]-3-(pyridin-2-yl)-1H-pyrazol-5-amine]
6.00 to 7.00 | O=C(c1ccccc1Cl)n1nc(-c2ccccc2F)cc1NCc1ccccc1 [Cmpd 242, N-benzyl-1-[(2-chlorophenyl)carbonyl]-3-(2-fluorophenyl)-1H-pyrazol-5-amine]
6.00 to 7.00 | O=C(c1ccccc1Cl)n1nc(-c2ccccn2)cc1NCc1ccccc1 [Cmpd 244, N-benzyl-1-[(2-chlorophenyl)carbonyl]-3-(pyridin-2-yl)-1H-pyrazol-5-amine]
6.00 to 7.00 | CCc1ccccc1C(=O)n1nc(-c2ccccn2)nc1NCc1ccccc1 [Cmpd 246, N-benzyl-1-[(2-ethylphenyl)carbonyl]-3-(pyridin-2-yl)-1H-1,2,4-triazol-5-amine]
< 6.00 | CCc1ccccc1C(=O)n1nc(-c2ccccn2)cc1NCc1ccccc1 [Cmpd 247, N-benzyl-1-[(2-ethylphenyl)carbonyl]-3-(pyridin-2-yl)-1H-pyrazol-5-amine]
> 7.00 | COc1ccc(C(=O)n2nc(-c3ccccn3)nc2NCc2ccccc2)c(F)c1 [Cmpd 248, N-benzyl-1-[(2-fluoro-4-methoxyphenyl)carbonyl]-3-(pyridin-2-yl)-1H-1,2,4-triazol-5-amine]
> 7.00 | Cc1ccc(C(=O)n2nc(-c3ccccn3)nc2NCc2ccccc2)c(F)c1 [Cmpd 249, N-benzyl-1-[(2-fluoro-4-methylphenyl)carbonyl]-3-(pyridin-2-yl)-1H-1,2,4-triazol-5-amine]
> 7.00 | O=C(c1ccccc1F)n1nc(-c2ccccn2)cc1NCc1ccccc1 [Cmpd 251, N-benzyl-1-[(2-fluorophenyl)carbonyl]-3-(pyridin-2-yl)-1H-pyrazol-5-amine]
> 7.00 | COc1cc(C)ccc1C(=O)n1nc(-c2ccccn2)nc1NCc1ccccc1 [Cmpd 253, N-benzyl-1-[(2-methoxy-4-methylphenyl)carbonyl]-3-(pyridin-2-yl)-1H-1,2,4-triazol-5-amine]
6.00 to 7.00 | COc1ccccc1C(=O)n1nc(-c2ccccn2)cc1NCc1ccccc1 [Cmpd 256, N-benzyl-1-[(2-methoxyphenyl)carbonyl]-3-(pyridin-2-yl)-1H-pyrazol-5-amine]
> 7.00 | Cc1ccccc1C(=O)n1nc(-c2ccccn2)nc1NCc1ccccc1 [Cmpd 259, N-benzyl-1-[(2-methylphenyl)carbonyl]-3-(pyridin-2-yl)-1H-1,2,4-triazol-5-amine]
< 6.00 | Cc1ccccc1C(=O)n1nc(-c2ccccn2)cc1NCc1ccccc1 [Cmpd 260, N-benzyl-1-[(2-methylphenyl)carbonyl]-3-(pyridin-2-yl)-1H-pyrazol-5-amine]
> 7.00 | COc1cccc(C(=O)n2nc(-c3ccccn3)nc2NCc2ccccc2)c1 [Cmpd 261, N-benzyl-1-[(3-methoxyphenyl)carbonyl]-3-(pyridin-2-yl)-1H-1,2,4-triazol-5-amine]
> 7.00 | COc1ccc(C(=O)n2nc(-c3ccccn3)nc2NCc2ccccc2)c(C)c1 [Cmpd 264, N-benzyl-1-[(4-methoxy-2-methylphenyl)carbonyl]-3-(pyridin-2-yl)-1H-1,2,4-triazol-5-amine]
> 7.00 | O=C(c1cccc2ccccc12)n1nc(-c2ccccn2)nc1NCc1ccccc1 [Cmpd 269, N-benzyl-1-[(naphthalen-1-yl)carbonyl]-3-(pyridin-2-yl)-1H-1,2,4-triazol-5-amine]
